Values after ≈ are worked out from the molar mass of the structure shown.
Columns and labels:
[1] = Single-dose intravenous toxicity screening test in mouse; format: in vivo; conditions: single intravenous dose 30 mg/kg, compared with corresponding compound having -COOH at the C-terminal
Experimental: The compounds of the invention were tested for water solubility and toxicity.

[2] = test system: methicillin-resistant Staphylococcus aureus S. aureus SR3637 (H-MRSA); test: In vitro antimicrobial activity, MIC by microdilution method; format: cell-based
Experimental: (§1) In Vitro Assay of Antimicrobial Activity
(§2) For several compounds of the invention, minimal inhibitory concentration (MIC) was determined by the microdilution method using cation adjusted Mueller-Hinton broth well known in the art.

[3] = test system: vancomycin-resistant enterococcus E. faecalis SR7914 (VanA); test: as above; format: cell-based
Experimental: as §1, §2

SMILES	histological findings in kidney etc. [1]	MIC [2]	MIC [3]
CCNNC(=O)C1NC(=O)C2NC(=O)[C@H](NC(=O)[C@@H]3NC(=O)[C@H](CC(N)=O)NC(=O)C(NC(=O)[C@@H](CC(C)C)NC)[C@H](O)c4ccc(c(Cl)c4)Oc4cc3cc(c4OC3O[C@H](CO)[C@@H](O)[C@H](O)[C@H]3OC3C[C@](C)(NCc4cccc(NC(=O)c5ccc(OC(F)(F)F)cc5)c4)[C@H](O)[C@H](C)O3)Oc3ccc(cc3Cl)[C@H]2O)c2ccc(O)c(c2)-c2c(O)cc(O)cc21 (stereo partly drawn) [Example 2]	good histological findings		
CN[C@H](CC(C)C)C(=O)NC1C(=O)N[C@@H](CC(N)=O)C(=O)N[C@H]2C(=O)N[C@H]3C(=O)NC(C(=O)NC(C(=O)NO)c4cc(O)cc(O)c4-c4cc3ccc4O)[C@H](O)c3ccc(c(Cl)c3)Oc3cc2cc(c3OC2O[C@H](CO)[C@@H](O)[C@H](O)[C@H]2OC2C[C@](C)(NCCC3CCN(C(=O)Nc4ccc(OC(F)(F)F)cc4)CC3)[C@H](O)[C@H](C)O2)Oc2ccc(cc2Cl)[C@H]1O (stereo partly drawn) [Example 4]		0.5 µg/mL (≈ 0.281 µM)	4 µg/mL (≈ 2.25 µM)
